The structures appear in SMILES notation.

The source of these data is ChEMBL document CHEMBL3621066, “Vascular barrier protective effects of 3-N- or 3-O-cinnamoyl carbazole derivatives” (Bioorg Med Chem Lett, 2015).

Series [1] deals with HUVEC. Briefly: Inhibition of HMGB1-induced hyperpermeability of Evans blue-bound albumin in human HUVEC at 10 uM after 6 hrs by spectrophotometric analysis relative to control. In kind it is functional.
Series [2] has as its system Mus musculus. Briefly: Antiinflammatory activity in mouse assessed as inhibition of HMGB1-induced hyperpermeability of Evans blue dye to peritoneal cavity at 342.4 ug/kg administered 16 hrs after HMGB1 challenge measured after 6 hrs. In kind it is functional.
Series [3] concerns HUVEC. Put plainly: Antiinflammatory activity in human HUVEC assessed as inhibition of HMGB1-induced human neutrophils migration into cells at 10 uM after 6 hrs using crystal violet staining. The class given is functional.
For series [4], the system named is Mus musculus. Briefly: Antiinflammatory activity in mouse assessed as inhibition of HMGB1-induced leukocyte migration into peritoneal cavity at 342.4 ug/kg administered 16 hrs after HMGB1 challenge measured after 6 hrs by light microscopic analysis. In kind it is functional.
For series [5], the system named is HUVEC. Put plainly: Cytotoxicity against human HUVEC assessed as cell viability up to 20 uM after 24 hrs. The class given is cell-based.
Series [6] relates to Mus musculus. Briefly: Antiinflammatory activity in mouse assessed as inhibition of HMGB1-induced hyperpermeability of Evans blue dye to peritoneal cavity at 372.4 ug/kg administered 16 hrs after HMGB1 challenge measured after 6 hrs. In kind it is functional.
The subject of series [7] is Mus musculus. Briefly: Antiinflammatory activity in mouse assessed as inhibition of HMGB1-induced leukocyte migration into peritoneal cavity at 372.4 ug/kg administered 16 hrs after HMGB1 challenge measured after 6 hrs by light microscopic analysis. In kind it is functional.
Series [8] deals with Mus musculus. Put plainly: Antiinflammatory activity in mouse assessed as inhibition of HMGB1-induced hyperpermeability of Evans blue dye to peritoneal cavity at 402.4 ug/kg administered 16 hrs after HMGB1 challenge measured after 6 hrs. The class given is functional.
Series [9] relates to Mus musculus. Briefly: Antiinflammatory activity in mouse assessed as inhibition of HMGB1-induced leukocyte migration into peritoneal cavity at 402.4 ug/kg administered 16 hrs after HMGB1 challenge measured after 6 hrs by light microscopic analysis. In kind it is functional.
The subject of series [10] is Mus musculus. Briefly: Antiinflammatory activity in mouse assessed as inhibition of HMGB1-induced hyperpermeability of Evans blue dye to peritoneal cavity at 403.4 ug/kg administered 16 hrs after HMGB1 challenge measured after 6 hrs. The class given is functional.
For series [11], the system named is Mus musculus. Briefly: Antiinflammatory activity in mouse assessed as inhibition of HMGB1-induced leukocyte migration into peritoneal cavity at 403.4 ug/kg administered 16 hrs after HMGB1 challenge measured after 6 hrs by light microscopic analysis. In kind it is functional.

As to `COc1ccc(/C=C/C(=O)Nc2ccc3[nH]c4ccccc4c3c2)cc1`, the inhibition (commonly the drop in the measured response relative to a control, in per cent) at 10 µM in series [1] was found to be 3.6%; in series [3], 4.8%. In addition, the values for the inhibition in vivo at 0.3424 mg/kg in series [2] and in series [4] were 1.4% and 0.8%, respectively. Moreover, the Activity entry in series [5] was “Non-toxic”.

As for `COc1ccc(/C=C/C(=O)Nc2ccc3[nH]c4ccccc4c3c2)cc1OC`, the inhibition at 10 µM in series [1] is 42.9%; in [3], 43.5%. The inhibition in vivo (as a rule, how much of the control response was suppressed) at 0.3724 mg/kg came to 26.2% in series [6] and 39% in [7]. The Activity result in [5] is reported as “Non-toxic”.

With `COc1cc(/C=C/C(=O)Nc2ccc3[nH]c4ccccc4c3c2)cc(OC)c1OC`, the figures for the inhibition at 10 µM in series [1] and in [3] were 68.4% and 62%, respectively. Also, the inhibition in vivo at 0.4024 mg/kg in [8] came to 57.5%; in series [9], 60.3%. Moreover, the Activity result in series [5] is “Non-toxic”.

Consider `COc1cc(/C=C/C(=O)Oc2ccc3[nH]c4ccccc4c3c2)cc(OC)c1OC`, for which the figures for the inhibition at 10 µM in series [1] and in [3] were 70.2% and 65.4%, respectively. Moreover, the inhibition in vivo at 0.4034 mg/kg in series [10] amounted to 58.9%; in series [11], 61.2%. Moreover, the Activity result in series [5] is “Non-toxic”.
